In patent US20260185169A1, “MOLECULAR SIGNATURES TO PREDICT LONG-TERM LIVER FIBROSIS PROGRESSION” (THE BOARD OF REGENTS OF THE UNIVERSITY OF TEXAS SYSTEM, priority 2022, published 2026):
Residues, ends and D or L forms follow the SMILES beside them. *: point of attachment. Cbz = O=C(OCc1ccccc1)*

Experiments:
[1] = test system: clinical PCLS tissues; test: FPS/PLS response (CES, nCounter) in organotypic ex vivo culture of clinical PCLS tissues; format: cell-based, human; conditions: for FPS response rate (number of responding patients): count of patients with CES-based FPS response; for FPS response rate (number of responding patients) / FPS response rate: PCLS cultured 24 h with agent vs vehicle; for PLS response rate (number of responding patients): count of patients with PLS response; for PLS response rate (number of responding patients) / PLS response rate: ex vivo PCLS culture; for modulation of SLC7A1 (CAT1): drug-level FPS gene modulation in ex vivo PCLS culture; for FPS response rate: percent of patients tested with CES-based FPS response; for PLS response rate: percent of patients tested with PLS response
Description: (§1) Evaluation of galunisertib, erlotinib, AM095, bortezomib, pioglitazone, metformin, epigallocatechin gallate (EGCG), I-BET 151, JQ1, captopril, nizatidine (Selleck Chemicals); MG-132 (Sigma-Aldrich); cenicriviroc (AbbVie) (Table 2) were done in organotypic ex vivo culture of precision-cut liver slice (PCLS) tissues in the FPS validation set 2 as previously described. Patient-derived liver cell spheroids were generated from a cirrhosis patient and high-risk FPS was induced by free fatty acids, and treated with EGCG, bortezomib, cenicriviroc, and/or bezafibrate for 48 h. Mycoplasma-free human hepatic myofibroblast cell lines, LX-2 and TWNT-4, were cultured with MG-132 (20 μM) or DMSO control for 12 and 24 h in triplicates.
(§2) Total RNA was isolated from fixed tissue sections by using High Pure RNA Paraffin kit (Roche), and assessed for quality by qRT-PCR of RPL13A. Total RNA from the PCLS tissues was isolated using RNeasy kit (Qiagen). RNA samples (100-200 ng) were subjected to the PLS/FPS assay implemented in the nCounter platform (NanoString), and transcriptome profiling of the CENTAUR trial samples was performed by RNA-Seq (TrueSeq RNA Access, Illumina). Expression of BCL2, COL1A1, and ACTA2 genes was measured by qRT-PCR (Table 3). Serum protein profiling was performed by using xMAP assay (Luminex).
Total RNA was isolated from three to five 10-μm-thick formalin-fixed paraffin-embedded (FFPE) tissue sections from the PLS/FPS derivation/validation cohorts by using High Pure RNA Paraffin kit (Roche), and lack of severe RNA fragmentation was confirmed by qRT-PCR of a housekeeping gene RPL13A as previously described.^1 From freshly harvested myofibroblast cell lines, LX-2 and TWNT-4, and clinical precision-cut-liver slice (PCLS) tissues stored in RNAlater (ThermoFisher) at −80?C, total RNA was isolated using RNeasy kit (Qiagen), and the RNA integrity number (RIN)>8 by Bioanalyzer (Agilent) was regarded as sufficient quality for expression analysis. Total RNA samples (100 to 500 ng) were subjected to the gene signature assays implemented in the digital transcript counting technology (NanoString) according to manufacturer's instruction. Poor quality profiles were detected based on maximum signal intensity from positive control probes <3,000U. Raw transcript count data were log-transformed (base 2) and scaled by geometric mean of control probe data by using NanoString normalizer module implemented in GenePattern data analysis suite (www.broadinstitute.org/genepattern). Genome-wide transcriptome profiling of the CENTAUR trial samples was performed using 100 to 200 ng total RNA by RNA-Seq using exome-enriched library preparation according to the manufacturer's protocol (TrueSeq, Illumina). Raw sequencing reads were mapped onto the reference human genome (hg19) by using the STAR aligner (ver. 2.6.1b) followed by the read counting on genes via featureCounts in the Subread package (ver. 1.6.1). The raw read counts were further normalized by using the Relative Log Expression (RLE) implemented in the DESeq2 package (ver. 1.22.2). Expression of COL1A1, and ACTA2, and BCL2 genes was measured by qRT-PCR (BioRad) using ddCt method with RPL13A as housekeeping gene, as previously described (refer Table 3 for the primer sequences). Gene expression profiles of the PLS/FPS-inducible cell culture model (cell-culture-derived PLS [cPLS] system) treated with erlotinib, pioglitazone, captopril, and resveratrol were obtained from our previous study (GSE81801).

[2] = test system: PCLS tissue from a chronic hepatitis C patient with F2 fibrosis; test: Validation of combination therapies by liver fibrosis gene panel in ex vivo culture of a clinical fibrotic PCLS tissue; format: cell-based, human; conditions: agent added to EGCG
Description: as §1
To test this idea, synergistic effect of the agents to shift the FPS from high- to low-risk pattern was computationally inferred, i.e., suppression of the high-risk genes and/or induction of the low-risk genes (see materials and methods).

[3] = test system: biliary fibrosis induced by bile duct ligation; conditions: bile duct ligation in mice; cited from earlier work
[4] = test system: LX-2; test: MG-132 effect on COL1A1, ACTA2 and BCL2 expression (qRT-PCR) in LX-2; format: cell-based, human; conditions: MG-132 20 μM vs DMSO, 12 and 24 h
Description: as §1
as §2, with “(Luminex). […]” for “(Luminex).”

[5] = test system: TWNT-4; test: MG-132 effect on COL1A1, ACTA2 and BCL2 expression (qRT-PCR) in TWNT-4; format: cell-based, human; conditions: MG-132 20 μM vs DMSO, 12 and 24 h
Description: as §1
as §2, with “(Luminex). […]” for “(Luminex).”

[6] = test system: human precision-cut liver slice (PCLS); test: MG-132 effect on COL1A1, ACTA2 and BCL2 expression (qRT-PCR) in ex vivo PCLS culture; format: cell-based; conditions: PCLS from two patients, HCV (F1) and NAFLD (F2); vs DMSO
Description: as §1
as §2, with “(Luminex). […]” for “(Luminex).”

[7] = test system: clinical PCLS tissue; test: Immunostaining of cleaved caspase-3, alpha-SMA and GFAP in PCLS tissues cultured with MG-132 or DMSO; format: cell-based, human; conditions: PCLS tissues cultured with MG-132 vs DMSO, five patients
Protocol: FIG. 4A depicts a co-expression gene network defined in the FPS derivation set 1 to 4. Hub genes are indicated with larger nodes. Synthesized association with time to fibrosis progression (Fisher's inverse chi-square statistic) in the FPS derivation set 1 and 2 is shown by red (poor outcome) to blue (good outcome) color scale. […] All assays were performed in triplicates. Green dotted line indicates expression level of the DMSO-treated control. […] Paired tissues from the same patient are connected with a line. Wilcoxon signed-rank test p-value is shown. […] Scale bars indicate 50 μm and 25 μm for upper and lower panels, respectively. […] Scale bars indicate 100 μm. […] NES: normalized enrichment score. FDR: false discovery rate.
Immunostaining was performed for caspase-3 (Asp175) (5A1E, Cell Signaling), alpha-SMA (Abcam), Desmin (DAKO), GFAP (abcam), and Ki-67 (Abcam). TUNEL staining was performed using ApopTag Peroxidase In Situ Apoptosis Detection Kit (EMD Millipore).

Compound | FPS response rate (number of responding patients) [1] | PLS response rate (number of responding patients) [1] | modulation of SLC7A1 (CAT1) [1] | other results
Cc1noc(-c2ccc(-c3ccc(CC(=O)O)cc3)cc2)c1NC(=O)O[C@H](C)c1ccccc1 [AM095] | 11 | 8 | similarly striking suppression | FPS response rate [1]: 38%; PLS response rate [1]: 27.59%
CC(C)C[C@H](NC(=O)[C@H](Cc1ccccc1)NC(=O)c1cnccn1)B(O)O [Bortezomib] | 4 | 5 |  | expression of genes encoding extracellular matrix proteins (COL1A1, HAS2) and fibrogenic drivers (PDGFRB, TGFB1, NOTCH1, LPAR1) [2]: substantially reduced expression; myofibroblast activation and biliary fibrosis [3]: reduced myofibroblast activation and inhibit biliary fibrosis
O=C(O[C@@H]1Cc2c(O)cc(O)cc2O[C@@H]1c1cc(O)c(O)c(O)c1)c1cc(O)c(O)c(O)c1 [Epigallocatechin gallate] | 7 | 9 |  | FPS response rate [1]: 64%; PLS response rate [1]: 81.82%
C#Cc1cccc(Nc2ncnc3cc(OCCOC)c(OCCOC)cc23)c1 [Erlotinib] | 11 | 13 |  | 
Cc1cccc(-c2nn3c(c2-c2ccnc4ccc(C(N)=O)cc24)CCC3)n1 [Galunisertib] | 6 | 7 | similarly striking suppression | 
CC(C)C[C@@H](C=O)NC(=O)[C@H](CC(C)C)NC(=O)[C@H](CC(C)C)NC(=O)OCc1ccccc1 [MG132] (Cbz-Leu-Leu-Leu-aldehyde) | 6 | 3 |  | modulation of high-risk FPS genes (gene set enrichment analysis) ([1]; clinical fibrotic PCLS tissues, ex vivo MG-132, FDR≤0.008): significantly suppressed; expression of COL1A1, ACTA2 and BCL2 [4]: suppression; expression of COL1A1, ACTA2 and BCL2 [5]: suppression; expression of COL1A1, ACTA2 and BCL2 [6]: reduced expression; cleaved-caspase-3-positive cells (apoptosis induction) [7]: increased; expression of genes encoding extracellular matrix proteins (COL1A1, HAS2) and fibrogenic drivers (PDGFRB, TGFB1, NOTCH1, LPAR1) [2]: substantially reduced expression; myofibroblast activation and biliary fibrosis [3]: reduced myofibroblast activation and inhibit biliary fibrosis
CN(C)C(=N)N=C(N)N [Metformin] | 7 | 6 | similarly striking suppression | 
CNC(=C[N+](=O)[O-])NCCSCc1csc(CN(C)C)n1 [Nizatidine] | 3 | 3 |  | 
CCc1ccc(CCOc2ccc(CC3SC(=O)NC3=O)cc2)nc1 (stereo not shown) [Pioglitazone] | 6 | 7 |  | 
